{"source": "patent US20230404968A1", "about": "“Gamma Butyrolactone Derivatives for Inducing Differentiation in Neoplastic Cells” (priority 2022, published 2023)", "key": {"[1]": {"system": "HL60 cells", "assay": "Induction of differentiation: gene expression (qRT-PCR) and CD surface markers (flow cytometry), HL60", "type": "cell-based", "conditions": "HL60 cell line; confirmed by expression of FLT3, PU1, CEBPA genes and CD3, CD20, CD14, CD33, CD16, CD56 surface markers", "protocol": "(§1) Cell culture methods and treatments.\n(§2) Flow cytometry. […] In addition, treated cells were incubated with antibody-dye conjugate against CD3, CD20, CD16, CD56, CD14, and CD33 for surface antigen analysis. Thereafter the samples were analyzed by flow cytometer (Attune NxT, Life Technologies-Thermo Fisher Scientific, USA). Treatment with 5 μL H2O2 and 1 μM ATRA were used as the positive controls for apoptosis and necrosis and surface antigen analyses, respectively. Data were analyzed with FlowJo software.\n(§3) RNA isolation and qRT-PCR. […] The concentration of extracted RNA was measured via spectrophotometer (EPOCH, BioTek, USA) at 260 nm. The quality of isolated RNA was further evaluated via agarose gel electrophoresis indicating two distinctive bands. Isolated RNA was then converted to cDNA via a commercial kit according to the manufacturer's instructions. The primers were designed with AlleleID software and Primer3 algorithm and then double-checked via the BLAST algorithm. cDNA samples were then prepared for analysis using a commercial kit and analyzed with qRT-PCR machine (Applied Biosystems-Thermo Fisher Scientific, USA)."}, "[2]": {"system": "HL60 cells", "assay": "Cell viability (MTS) assay, HL60", "conditions": "for cellular viability (MTS): HL60 cancer cells, at the given concentrations, 24, 48, and 72 hours; for toxicity: HL60 cell line, at a concentration of induction of cellular differentiation (FIGS. 9B, 10B)", "protocol": "(§4) Cell culture methods and treatments. HL60 and KG1a cell lines were cultivated in RPMI 1640 (Sigma-USA) culture medium supplemented with 1% penicillin/streptomycin (Gibco-USA), 10% and 20% fetal bovine serum (Gibco-USA) for HL60 and KG1a cell lines, respectively, and 0.5% Glutamax (Gibco-USA) for HL60 cell line. The cells were incubated at 37° C., 5% CO2, and 90% humidity. The stock solution (Mol/L) of HSL-C8, HSL-C12, and A-factor were prepared in 0.1% (v/v) and 0.2% (v/v) and 0.2% (v/v) DMSO, respectively, as a vehicle and stored at −80° C. Different dilutions of HSL-C8, HSL-C12, A-factor, and GBL were prepared from the stock solution, and […] (<4% of the total volume) of each were added to the wells containing 100 μL of cell suspension (10000 and 20000 HL60 and KG1a cells per well). 0.1% and 0.2% DMSO were used as the negative control for HSL-C8, HSL-C12, and A-factor for each test. Culture medium were used as the negative control for GBL.\n(§5) Cell viability assay. The cell viability was evaluated via (MTS) assay. HL60, KG1a, and PBMC cells were treated with HSL-C8, HSL-C12, A-factor, and GBL in 96-well plates for 24, 48, and 72 hours. Thereafter, […], of MTS/PMS solution were added to each well and the cells were incubated for 90 minutes. The optical density (OD) of samples was measured via spectrophotometer (EPOCH, BioTek, USA) at 490 nm and the viability of cells was calculated via the following formula:\n(§6) Cell viability (%)=[ODsample/ODcontrol]×100"}, "[3]": {"system": "KG1a cells", "assay": "Cell viability (MTS) assay, KG1a", "conditions": "for cellular viability (MTS): KG1a cancer cells, at the given concentrations, 24, 48, and 72 hours; for toxicity: KG1a cell line, at a concentration of induction of cellular differentiation (FIGS. 9C, 10C)", "protocol": "as §4, §5, §6"}, "[4]": {"system": "KG1a cells", "assay": "Induction of differentiation: gene expression (qRT-PCR) and CD surface markers (flow cytometry), KG1a", "type": "cell-based", "conditions": "KG1a cell line; confirmed by expression of FLT3, PU1, CEBPA genes and CD3, CD20, CD14, CD33, CD16, CD56 surface markers", "protocol": "as §1, §2, §3"}, "[5]": {"system": "peripheral blood mononuclear cells (PBMC)", "assay": "Cell viability (MTS) assay, PBMC", "type": "cell-based", "conditions": "normal cells (PBMC), at the given concentrations, 24, 48, and 72 hours", "protocol": "Cell viability assay. The cell viability was evaluated via (MTS) assay.\nas §6"}, "[6]": {"system": "HL60 cells", "assay": "Wright-Giemsa staining and light microscopy (morphology), HL60", "type": "cell-based", "protocol": "as §1\n(§7) Wright-Giemsa staining. HL60 and KG1a cells treated HSL-C8 and HSL-C12 were concentrated and then fixed on the slides with absolute ethanol prior to Wright-Giemsa staining. After staining for four minutes the 1 mL of tap water was added to the slides. After four minutes, they were washed with tap water, air-dried, and evaluated with a light microscopy."}, "[7]": {"system": "KG1a cells", "assay": "Wright-Giemsa staining and light microscopy (morphology), KG1a", "type": "cell-based", "protocol": "as §1, §7"}, "[8]": {"system": "KG1a cells", "assay": "Apoptosis/necrosis by flow cytometry, Annexin-V-FITC/PI staining, KG1a", "type": "cell-based", "protocol": "as §1, §2"}, "[9]": {"system": "HL60 cells", "assay": "Apoptosis/necrosis by flow cytometry, Annexin-V-FITC/PI staining, HL60", "type": "cell-based", "conditions": "for apoptosis (early and late) and necrosis: HL60 cells", "protocol": "as §1, §2"}}, "data": [{"smiles": "CC(C)CCCCC(=O)C1C(=O)OCC1CO", "note": "(stereo not drawn) [A-factor, 2-isocapryloyl-3R-hydroxymethyl-gamma-butyrolactone]", "values": [{"measurement": "terminal cellular differentiation", "setting": "[1]", "value": "induced terminal cellular differentiation"}, {"measurement": "cellular viability (MTS)", "setting": "[2]", "value": "do not decrease the cellular viability of treated cancer cells and normal cells (PBMC) significantly"}, {"measurement": "toxicity", "setting": "[2]", "value": "minimal toxicity"}, {"measurement": "cellular viability (MTS)", "setting": "[3]", "value": "do not decrease the cellular viability of treated cancer cells and normal cells (PBMC) significantly"}, {"measurement": "toxicity", "setting": "[3]", "value": "minimal toxicity"}, {"measurement": "terminal cellular differentiation", "setting": "[4]", "value": "induced terminal cellular differentiation"}, {"measurement": "cellular viability (MTS)", "setting": "[5]", "value": "do not decrease the cellular viability of treated cancer cells and normal cells (PBMC) significantly"}]}, {"smiles": "CCCCCC(=O)CC(=O)N[C@H]1CCOC1=O", "note": "[HSL-C8]", "values": [{"measurement": "change of cell morphology", "setting": "[6]; 50 μM and 100 μM of HSL-C8, 48 and 72 hours (FIG. 7A)", "value": "neutrophil and macrophage-like cells, with lobulated nuclei and expanded cytoplasm"}, {"measurement": "terminal cellular differentiation", "setting": "[1]", "value": "induced terminal cellular differentiation"}, {"measurement": "change of cell morphology", "setting": "[7]; 100 μM and 200 μM of HSL-C8, 48 and 72 hours (FIG. 7B)", "value": "neutrophil and macrophage-like cells, with lobulated nuclei and expanded cytoplasm"}, {"measurement": "concentrations that cause minimal to no apoptosis", "setting": "[8]; human", "value": "≤ 100", "unit": "µM"}, {"measurement": "concentrations that cause minimal to no apoptosis", "setting": "[9]; human", "value": "≤ 100", "unit": "µM"}, {"measurement": "cellular viability (MTS)", "setting": "[2]", "value": "do not decrease the cellular viability of treated cancer cells and normal cells (PBMC) significantly"}, {"measurement": "cellular viability (MTS)", "setting": "[3]", "value": "do not decrease the cellular viability of treated cancer cells and normal cells (PBMC) significantly"}, {"measurement": "terminal cellular differentiation", "setting": "[4]", "value": "induced terminal cellular differentiation"}, {"measurement": "cellular viability (MTS)", "setting": "[5]", "value": "do not decrease the cellular viability of treated cancer cells and normal cells (PBMC) significantly"}]}, {"smiles": "CCCCCCCCCC(=O)CC(=O)N[C@H]1CCOC1=O", "note": "[HSL-C12]", "values": [{"measurement": "change of cell morphology", "setting": "[6]; 100 μM and 150 μM of HSL-C12, 24 and 48 hours (FIG. 8A)", "value": "neutrophil and macrophage-like cells, with lobulated nuclei and expanded cytoplasm"}, {"measurement": "terminal cellular differentiation", "setting": "[1]", "value": "induced terminal cellular differentiation"}, {"measurement": "change of cell morphology", "setting": "[7]; 100 μM and 150 μM of HSL-C12, 24 and 48 hours (FIG. 8B)", "value": "neutrophil and macrophage-like cells, with lobulated nuclei and expanded cytoplasm"}, {"measurement": "apoptosis (early and late) and necrosis", "setting": "[8]; KG1a cells, 100 μM of HSL-C12, 24 hours (FIG. 4C)", "value": "minimal to no apoptosis (early and late) and necrosis"}, {"measurement": "apoptosis (early and late) and necrosis", "setting": "[8]; KG1a cells, 100 μM of HSL-C12, 48 hours (FIG. 4D)", "value": "minimal to no apoptosis (early and late) and necrosis"}, {"measurement": "apoptosis and necrosis", "setting": "[8]; KG1a cells, 150 μM of HSL-C12, 24 hours (FIG. 4C)", "value": "minimal apoptosis and necrosis"}, {"measurement": "apoptosis (early and late) and necrosis", "setting": "[8]; KG1a cells, 150 μM of HSL-C12, 48 hours (FIG. 4D)", "value": "moderate apoptosis (early and late) and necrosis"}, {"measurement": "apoptosis (early and late) and necrosis", "setting": "[9]; 50 and 100 μM of HSL-C12, 24 hours (FIG. 4A)", "value": "minimal to no apoptosis (early and late) and necrosis"}, {"measurement": "apoptosis (early and late) and necrosis", "setting": "[9]; 50 and 100 μM of HSL-C12, 48 hours (FIG. 4B)", "value": "minimal to no apoptosis (early and late) and necrosis"}, {"measurement": "cellular viability (MTS)", "setting": "[2]", "value": "do not decrease the cellular viability of treated cancer cells and normal cells (PBMC) significantly"}, {"measurement": "cellular viability (MTS)", "setting": "[3]", "value": "do not decrease the cellular viability of treated cancer cells and normal cells (PBMC) significantly"}, {"measurement": "terminal cellular differentiation", "setting": "[4]", "value": "induced terminal cellular differentiation"}, {"measurement": "cellular viability (MTS)", "setting": "[5]", "value": "do not decrease the cellular viability of treated cancer cells and normal cells (PBMC) significantly"}]}, {"smiles": "O=C1CCCO1", "note": "[GBL, Gamma butyrolactone]", "values": [{"measurement": "terminal cellular differentiation", "setting": "[1]", "value": "induced terminal cellular differentiation"}, {"measurement": "apoptosis (early and late) and necrosis", "setting": "[8]; KG1a cells, 300 μM of GBL, 48 hours (FIG. 11)", "value": "minimal to no apoptosis (early and late) and necrosis"}, {"measurement": "apoptosis (early and late) and necrosis", "setting": "[9]; 300 μM of GBL, 48 hours (FIG. 11)", "value": "minimal to no apoptosis (early and late) and necrosis"}, {"measurement": "cellular viability (MTS)", "setting": "[2]", "value": "do not decrease the cellular viability of treated cancer cells and normal cells (PBMC) significantly"}, {"measurement": "toxicity", "setting": "[2]", "value": "minimal toxicity"}, {"measurement": "cellular viability (MTS)", "setting": "[3]", "value": "do not decrease the cellular viability of treated cancer cells and normal cells (PBMC) significantly"}, {"measurement": "toxicity", "setting": "[3]", "value": "minimal toxicity"}, {"measurement": "terminal cellular differentiation", "setting": "[4]", "value": "induced terminal cellular differentiation"}, {"measurement": "cellular viability (MTS)", "setting": "[5]", "value": "do not decrease the cellular viability of treated cancer cells and normal cells (PBMC) significantly"}]}]}
